The values below come from patent US10239840B2, “Benzoazepine derivatives” (ViiV HEALTHCARE UK LIMITED, priority 2015, dated 2019).

By IC50 is commonly meant the concentration that gives 50% inhibition.

The subject of the test is HIV. The experiment in a line: MT4 assay, antiviral HIV activity. Format: cell-based. As to conditions: MT-4 cells (HTLV-1 transformed), read-out at 96 hours with cell titer glo. On the procedure:
Antiviral HIV activity and cytotoxicity values for compounds of the invention from Table 1 were measured in parallel in the HTLV-1 transformed cell line MT-4 based on the method previously described (Hazen et al., 2007, In vitro antiviral activity of the novel, tyrosyl-based human immunodeficiency virus (HIV) type 1 protease inhibitor brecanavir (GW640385) in combination with other antiretrovirals and against a panel of protease inhibitor-resistant HIV (Hazen et al., “In vitro antiviral activity of the novel, tyrosyl-based human immunodeficiency virus (HIV) type 1 protease inhibitor brecanavir (GW640385) in combination with other antiretrovirals and against a panel of protease inhibitor-resistant HIV”, Antimicrob. Agents Chemother. 2007, 51: 3147-3154; and Pauwels et al., “Sensitive and rapid assay on MT-4 cells for the detection of antiviral compounds against the AIDS virus”, J. of Virological Methods 1987, 16: 171-185).
Luciferase activity was measured 96 hours later by adding a cell titer glo (Promega, Madison, Wis.). Percent inhibition of cell protection data was plotted relative to no compound control. Under the same condition, cytotoxicity of the compounds was determined using cell titer Glo™ (Promega, Madison, Wis.). IC50s were determined from a 10 point dose response curve using 3-4-fold serial dilution for each compound, which spans a concentration range >1000 fold.
These values are plotted against the molar compound concentrations using the standard four parameter logistic equation: y=((Vmax*x^n)/(K^n+x^n)+Y2
Y2=minimum γ n=slope factor
Vmax=maximum γ x=compound concentration [M]

Turning to `Cc1c2c(c(C)c([C@H](OC(C)(C)C)C(=O)O)c1-c1ccccc1)CCN(C(=O)c1cccc(F)c1)CC2` [Example 3, (S)-2-(tert-butoxy)-2-(3-(3-fluorobenzoyl)-6,9-dimethyl-8-phenyl-2,3,4,5-tetrahydro-1H-benzo[d]azepin-7-yl)acetic Acid], the 50% inhibitory concentration (IC50) stood at 219 nM. On to `Cc1ccc(-c2c(C)c3c(c(C)c2[C@H](OC(C)(C)C)C(=O)O)CCN(C(=O)c2cccc(F)c2)CC3)cc1` [Example 4, (S)-2-(tert-butoxy)-2-(3-(3-fluorobenzoyl)-6,9-dimethyl-8-(p-tolyl)-2,3,4,5-tetrahydro-1H-benzo[d]azepin-7-yl)acetic Acid], for which the 50% inhibitory concentration (IC50) turned out to be 34 nM.
